Assay results: patent US9480259B2, “Pyrazolopyrans having herbicidal and pharmaceutical properties” (BASF SE, priority 2012, dated 2016)
pEC50: −log10 of the molar value.

Legend:
[1] = tested on: SETFA, AMARE, POLCO, CHEAL, GALAP; test: Greenhouse herbicidal test, post-emergence, weed panel; type: in vivo; details: application rate 1 kg/ha, scale 0 to 100
From the text: (§1) The seeds of the test plants were sown separately for each species. For the post-emergence treatment, the test plants were first grown to a height of 2 to 5 cm, depending on the plant habit, and only then treated with the active ingredients which had been suspended or emulsified in water. For this purpose, the test plants were either sown directly and grown in the same containers, or they were first grown separately as seedlings and transplanted into the test containers a few days prior to treatment. Depending on the species, the plants were kept at 10-25° C. or 20-35° C. The test period extended over 8 to 9 days. During this time, the plants were tended, and their response to the individual treatments was evaluated. Evaluation was carried out using a scale from 0 to 100. 100 means no emergence of the plants, or complete destruction of at least the aerial moieties, and 0 means no damage, or normal course of growth. A good herbicidal activity is given at values of at least 70 and a very good herbicidal activity is given at values of at least 85. The plants used in the greenhouse experiments belonged to the following species: [table]

[2] = tested on: AMARE (Amaranthus retroflexus); test: Greenhouse herbicidal test, post-emergence, AMARE; type: in vivo; details: application rate 1 kg/ha; for herbicidal activity against AMARE: scale 0 to 100; for pest or weed control at 1000 g/ha: Amaranthus retroflexus, scale 0 to 100, read-out: herbicidal activity against AMARE
From the text: as §1

[3] = tested on: POLCO (Poligonum convolvulus); test: Greenhouse herbicidal test, post-emergence, POLCO; type: in vivo; details: application rate 1 kg/ha; for herbicidal activity against POLCO: scale 0 to 100; for pest or weed control at 1000 g/ha: Poligonum convolvulus, scale 0 to 100, read-out: herbicidal activity against POLCO
From the text: as §1

[4] = tested on: CHEAL (Chenopodium album); test: Greenhouse herbicidal test, post-emergence, CHEAL; type: in vivo; details: application rate 1 kg/ha; for herbicidal activity against CHEAL: scale 0 to 100; for pest or weed control at 1000 g/ha: Chenopodium album, scale 0 to 100, read-out: herbicidal activity against CHEAL
From the text: as §1

[5] = biological target: Arabidopsis thaliana SHMT; test: SHMT activity assay (ED50 SHMT), coupled with N5,N10-CH2-THF dehydrogenase, NADH at 340 nm; type: biochemical; details: values given as upper bounds
How it was run: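 His-tagged SHMT purified on Ni-NTA. NADH formation followed at 340 nm for 30 min; ED50 from inhibition of initial velocity.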

[6] = Table 2, Arabidopsis thaliana SHMT enzyme assay

SMILES	pEC50 [5, 6]	pEC50 ([5]; Table 2)	herbicidal activity against at least three of the weeds SETFA, AMARE, POLCO, CHEAL, GALAP [1]	herbicidal activity against AMARE [2]	herbicidal activity against POLCO [3]	herbicidal activity against CHEAL [4]	pest or weed control at 1000 g/ha [2] [%]	pest or weed control at 1000 g/ha [3] [%]	pest or weed control at 1000 g/ha [4] [%]
Cc1n[nH]c2c1C(c1cc(-c3nnnn3C)cc(C(F)(F)F)c1)(C1CCC1)C(C#N)=C(N)O2 (racemic) [Compound 2.399]	–	–	good or very good	very good (a very good herbicidal activity is given at values of at least 85)	good (A good herbicidal activity is given at values of at least 70)	very good (a very good herbicidal activity is given at values of at least 85)	–	–	–
Cc1n[nH]c2c1C(c1cc(C(N)=S)cc(C(F)(F)F)c1)(C1CCC1)C(C#N)=C(N)O2 (racemic) [Compound 2.409]	–	–	good or very good	good (A good herbicidal activity is given at values of at least 70)	very good (a very good herbicidal activity is given at values of at least 85)	very good (a very good herbicidal activity is given at values of at least 85)	–	–	–
Cc1n[nH]c2c1C(c1cc(C(F)(F)F)cc(C(F)(F)F)c1)(C1(F)CC1)C(C#N)=C(N)O2 (stereo not shown) [Compound 2.247]	> 8.00	–	good or very good	–	–	–	≥ 85	≥ 85	≥ 85
Cc1n[nH]c2c1C(c1cc(C#N)cc(C#N)c1)(C1CCC1)C(C#N)=C(N)O2 (stereo not shown) [Compound 2.283]	> 7.00	–	good or very good	–	–	–	≥ 85	≥ 85	≥ 85
COCCOCC(=O)N(C)c1cc(C#N)cc(C2(C3CCC3)C(C#N)=C(N)Oc3[nH]nc(C)c32)c1 (stereo not shown) [Compound 2.616]	–	> 8.00	good or very good	–	–	–	≥ 85	–	≥ 85

Further lines, with some results ahead:

pEC50 [5, 6]	pEC50 ([5]; Table 2)	SMILES	herbicidal activity against at least three of the weeds SETFA, AMARE, POLCO, CHEAL, GALAP [1]	herbicidal activity against AMARE [2]	herbicidal activity against POLCO [3]	herbicidal activity against CHEAL [4]	pest or weed control at 1000 g/ha [2] [%]	pest or weed control at 1000 g/ha [3] [%]	pest or weed control at 1000 g/ha [4] [%]
> 8.00	–	Cc1n[nH]c2c1C(c1cc(Cl)cc(C#N)c1)(C1CCC1)C(C#N)=C(N)O2 (stereo not shown) [Compound 2.280]	good or very good	–	–	–	≥ 85	≥ 85	≥ 85
> 8.00	–	Cc1n[nH]c2c1C(c1cc(Br)cc(C#N)c1)(C1CCC1)C(C#N)=C(N)O2 (stereo not shown) [Compound 2.281]	good or very good	–	–	–	≥ 85	≥ 85	≥ 85
> 8.00	–	Cc1n[nH]c2c1C(c1cc(C#N)cc(C(F)(F)F)c1)(C1CCC1)C(C#N)=C(N)O2 (stereo not shown) [Compound 2.282]	good or very good	–	–	–	≥ 85	≥ 85	≥ 85
> 8.00	–	Cc1n[nH]c2c1C(c1cc(C#N)cc(C#N)c1)(C(C)C)C(C#N)=C(N)O2 (stereo not shown) [Compound 2.335]	good or very good	–	–	–	≥ 85	≥ 85	≥ 85
> 8.00	–	Cc1n[nH]c2c1C(c1cc(C#N)cc(C(F)(F)F)c1)(C1CC1)C(C#N)=C(N)O2 (stereo not shown) [Compound 2.362]	good or very good	–	–	–	≥ 85	≥ 85	≥ 85
–	> 8.00	Cc1n[nH]c2c1C(c1cc(C#N)cc(N(C)S(C)(=O)=O)c1)(C1CCC1)C(C#N)=C(N)O2 (stereo not shown) [Compound 2.617]	good or very good	–	–	–	≥ 85	–	≥ 85
–	> 8.00	Cc1n[nH]c2c1C(c1cc(C#N)cc(N(C)C(=O)CC#N)c1)(C1CCC1)C(C#N)=C(N)O2 (stereo not shown) [Compound 2.635]	good or very good	–	–	–	≥ 85	–	≥ 85
